Tested on: spider web
Test: web eradication / degradation of spider webs by the formulations
Parameters: species or system spiders
Conditions: comparison among the presented formulations; research by the inventors to-date
Text: As to the organic acid components of the above formulations, the chemical reaction for web degradation is exemplified by the following: As mentioned, the pH of compositions within the present invention(s) is an important feature of efficacy. […] As compositions of the present invention(s) are fabricated, the constituencies should be adjusted, as needed, to achieve end products of such acidity. Use of the formulations of the present invention is straight forward. In the simplest form, the solutions can be applied by a simple hand-pump garden sprayer. More pressurized, long-reach delivery may be achieved through various motorized pump systems as are readily available in the marketplace. After observed degradation of the target webs, the resulting “clumps” of digested webs may be simply rinsed from any surface with water.

Substance: Lauramidopropyl Betaine
- efficacy of web eradication (web degradation): effectively equivalent performance as Cocamipropyl Betaine

Reference: US20240358017A1, “SPIDER WEB ERADICATION AND SPIDER REPELLANT COMPOUND AND METHODS OF USE” (DALRAY, LLC., priority 2023, published 2024)
